# Measurements reported in patent publication US7855183B2, “Methods of treatment of a bcl-2 disorder using bcl-2 antisense oligomers” (Genta Incorporated, priority 2000, dated 2010).
# How the values were obtained:
# [1] = test system: LCLs (lymphoblastoid cells); experiment: Proliferation and apoptosis in LCLs with cytotoxic drugs plus G3139 or rituximab; type: cell-based
# Source text: (§1) The use of the targeted therapies, G3139 ([…], Genta, Inc.) and rituximab, to enhance chemosensitivity in EBV-associated lymphoproliferative disease (LPD) have been explored. EBV+LPDs such as post-transplant lymphoproliferative disorder (PTLD) and AIDS-related lymphoma (ARL) typically express bcl-2 and CD20. […] To determine whether these targeted therapies enhance chemosensitivity in EBV+LPD, the effects of cytotoxic drugs in combination with G3139 or rituximab on proliferation and apoptosis in LCLs were examined. […] To determine whether G3139 or rituximab enhanced the anti-tumor activity of chemotherapy in vivo, the effects of VP16 (15 mg/kg ip q3d×4); G3139 (10 mg/kg/d over 12 d ip q3d) or rituximab (20 mg/kg ip wkly×4); and VP16+G3139 or VP16+rituximab (same doses) on survival in the human-SCID model of PTLD were compared. Treatment was started 15 days after ip injection of 20 million LCLs.
# [2] = test system: LCLs (EBV-associated lymphoproliferative disease); experiment: Survival in the human-SCID model of PTLD; type: in vivo, mice; settings: for median survival: VP16 15 mg/kg ip q3dx4, G3139 10 mg/kg/d over 12 d ip, rituximab 20 mg/kg ip wklyx4, start 15 days after 20 million LCLs ip, untreated 50 days; for animals remaining tumor-free: monotherapy groups, stated jointly
# Source text: as §1
Molecule,effect in combination with chemotherapy [1],effect on apoptosis ([1]; alone),effect on proliferation ([1]; alone),median survival [2],animals remaining tumor-free [2]
rituximab: targeted therapy; EBV+LPDs typically express bcl-2 and CD20,augmented the effects of chemotherapy,no effect,minimal,88 days,7%
"COc1cc([C@@H]2c3cc4c(cc3[C@@H](O[C@@H]3O[C@@H]5CO[C@@H](C)O[C@H]5[C@H](O)[C@H]3O)[C@H]3COC(=O)[C@H]23)OCO4)cc(OC)c1O [VP16, etoposide]",–,–,–,86 days,7%
